Key:
[1] = test system: MAGE-D1 gene-deficient mice; experiment: Forced swim test, evaluation of depression-like behavior in model mice; assay type: in vivo, mouse; conditions: for average value of immobility time: immobility measured for 10 minutes, 0 mg/kg group 425 seconds; for depression-like behavior in model mice: FIG. 1A desipramine, FIG. 1B atomoxetine; for increase in immobility time of model mice in the forced swim test (result in words): desipramine 10 mg/kg or atomoxetine 3 mg/kg i.p., FIGS. 1A and 1B
Excerpt: A targeting vector (Stratagene: pBlueScript) for homologous recombination between a MAGE-D1 gene (Gene bank: NM_019791.2) exon and a drug (G418)-resistant gene (GenBank: U00004.1) was electroporated into embryo stem (ES) cells derived from 129Svj mice (supplied from National Center for Geriatrics and Gerontology), and drug-resistant colonies were selected. A homologous recombinant was identified from the selected drug-resistant colonies by Southern blotting. The identified target homologous recombinant ES cell clone was injected into C57BL/6J mouse blastocyst-stage embryos to generate chimeric mice. The chimeric mice were mated with wild-type C57BL/6J mice to generate F1 heterozygous MAGE-D1 gene-deficient mice. The heterozygous MAGE-D1 gene-deficient mice were mated with wild-type C57BL/6J mice up to the F10 generation. The mice having a 99.9% C57BL/6J genetic background were used (When mating with a C57BL/6J mouse is performed once, about half of the genes of a newborn mouse are derived from the C57BL/6J mouse used for mating. That is, it is considered that when mating with a C57BL/6J mouse is performed n times, about [1−(½)^n+1]×100% of genes are derived from the C57BL/6J mouse.) The mice having such a genetic background were defined as MAGE-D1 gene-deficient mice (hereinafter, also referred to as model mice) and used in the following tests.
(§1) Experimental Equipment and Procedure: A water bath (diameter 15 cm×height 20 cm) filled with water (water temperature: about 22° C., depth: 13 cm) was used as experimental equipment. A wild-type C57BL/6J mouse as a control or a model mouse was placed in the water bath, and just after that, immobility time was measured by Scanet MV-10 AQ (Brain Science Idea, Osaka, Japan) every 1 minute for 10 minutes.
(§2) Thirty minutes before the test, 10 mg/kg of desipramine (Sigma, St. Louis, Mo.) or 3 mg/kg of atomoxetine (LKT Laboratories, Inc, MN) dissolved in normal saline was intraperitoneally administered. As a control, the solvent was intraperitoneally administered.
(§3) In Examples, MAGE-D1 gene-deficient mice were used as animal models. The forced swim test was used for evaluating depression-like behavior. In the forced swim test, a mouse is placed in a narrow cylinder filled with water so as to recognize the impossibility of escape therefrom, and the time that the mouse floats on water without moving is evaluated as decreased motivation. […] Each administration test was performed in triplicate, and therefore graphs in FIGS. 1A and 1B show average values.

[2] = test system: wild-type C57BL/6J mouse; experiment: Forced swim test in control mice; assay type: in vivo; conditions: immobility measured for 10 minutes, 0 mg/kg group 203 seconds
Procedure: as §1, §2, §3

[3] = 3 mg/kg intraperitoneally 30 min before test
[4] = 10 mg/kg intraperitoneally 30 min before test

Row | Structure (SMILES) | average value of immobility time [1, 3] | depression-like behavior in model mice [1] | increase in immobility time of model mice in the forced swim test (result in words) [1] | average value of immobility time [2, 3] | average value of immobility time [1, 4] | average value of immobility time [2, 4]
1 | CNCC[C@@H](Oc1ccccc1C)c1ccccc1 [atomoxetine] | 283 s | relieved | significantly reduced | 205 s | – | –
2 | CNCCCN1c2ccccc2CCc2ccccc21 [desipramine] | – | relieved | significantly reduced | – | 334 s | 215 s

Source: patent publication US20170248586A1, “Marker For Depression, Assay Method, Method For Determining Depression, Screening Method For Antidepressants, And Kit” (MEIJO UNIVERSITY, priority 2013, published 2017)
